Entries after “also recorded” stand apart in the source; their conditions may differ.
What was measured:
[1] = system: Patient having increased uric acid in urine and diagnosed with symptoms of PDD; experiment: Treatment of Patient 1, who had increased uric acid in urine and was diagnosed with symptoms of PDD; format: in vivo, human
Description: Patient 1 was diagnosed with PDD. […], the patient's urine was analyzed, and the urine level of uric acid was 18.1 mg/kg/day. The normal level of uric acid in normal patients at age nine is 8.3+/−2.0 mg/kg/day. The uric acid level in the urine gradually declined to approximately normal levels, however the symptoms of PDD remained.
[…], Patient 1 was treated with a variety of drugs and exercise- and stress-reducing regimens. […] The exercise- and stress-reducing regimen helped in some respects, because Patient 1 was often fatigued. In addition, the low purine diet was continued at times along with vitamin B6 and magnesium. Over these many years, Patient 1 had varying levels of rather minor improvements in their symptoms in response to these and other attempted therapies.
Patient 1 began use of uridine, with an oral dosage of approximately 50 mg/kilogram of body weight per day. […] In particular, Patient 1 tried varying dosages of uridine up to 1000 mg/kg/day.

[2] = system: hyperuricosuric patients; details: some of these patients; cited from earlier work
[3] = system: hypouricosuric PDD patients; details: single oral doses of 1,000 mg/kg/day; cited from earlier work
[4] = cited from earlier work
[5] = cited from earlier work; remark: listed apart in the source
[6] = Patient 1, oral uridine, comparative narrative data against no uridine

C[C@H](N)Cc1ccccc1.C[C@H](N)Cc1ccccc1.O=S(=O)(O)O [Dexedrine®, reference compound]
Effect of earlier drug treatment on the patient's condition ([1]; Patient): little success or worsening of their condition

O=C(CCCN1CCC(O)(c2ccc(Cl)cc2)CC1)c1ccc(F)cc1 [Haldol®, reference compound]
Effect of earlier drug treatment on the patient's condition ([1]; Patient 1, donor alpha): little success or worsening of their condition

COC(=O)C(c1ccccc1)C1CCCCN1.Cl (stereo not drawn) [Ritalin®, reference compound]
Effect of earlier drug treatment on the patient's condition ([1]; Patient): little success or worsening of their condition

Oc1ncnc2[nH]ncc12 [allopurinol]
Benefit in patients with hyperuricosuria [2]: benefited

O=c1ccn([C@@H]2O[C@H](CO)[C@@H](O)[C@H]2O)c(=O)[nH]1 [uridine]
Effect on symptoms in hypouricosuric PDD patients [3]: reduce the symptoms
Improvements upon cessation of uridine therapy ([1]; Patient 1): declined or regressed
Neurological and neuromuscular symptoms (autistic disorder and ataxia) upon administration ([1]; Patient 1): improved dramatically
Fine motor skills with uridine [1, 6]: a. Able to use a screwdriver
Gross motor skills with uridine [1, 6]: d. Hugs normally-finds it easier; also recorded: e. Much less exhaustion and pain; also recorded: b. Does not crash into furniture,
Speech and language with uridine [1, 6]: b. Very quick to understand jokes,; also recorded: e. Usually makes eye contact
Benefit at this dosage of uridine ([1]; Patient 1, oral, 150 mg/kg/day): rapid benefits
Dosage dependence of improvements ([1]; Patient 1, varying dosages up to 1000 mg/kg/day): The higher dosages gave the most improved results
Adverse effect at higher dosages ([4]; dosages higher than 1000 mg/kg/day, some patients): mild diarrhea
Toxic effects ([4]; dosages of up to 1000 mg/kg/day, pure uridine): no known toxic effects
Normal plasma concentration of uridine [5]: 2 to 10 µM

Source: patent publication US6727231B1, “Uridine therapy for patients with elevated purine levels” (Repligen Corporation, priority 2000, dated 2004)
